Experimental findings from EP3628659A1, “SELENOESTER-CONTAINING COMPOUNDS FOR USE IN THE TREATMENT OF MICROBIAL INFECTIONS OR COLORECTAL CANCER” (Consejo Superior De Investigaciones Científicas, priority 2018, dated 2020) are described below.

Each structure is given as a SMILES string. Like-named read-outs stand apart in the source and are kept apart here.

The nature of data set [1]: Cytotoxicity assay (MTT) in non-tumoral MRC-5 cells. It is filed as cell-based. The conditions noted are these: human, IC50 class, non-tumoral cell line; for IC50 at 24 h: MRC-5 embryonal lung fibroblast cells (non-tumoral). As to the method:
(§1) Cytotoxicity assays in human colonic adenocarcinoma cell lines Colo 205 doxorubicin-sensitive (ATCC-CCL-222) and Colo 320/MDR-LRP multidrug resistant overexpressing ABCB1 (MDR1)-LRP (ATCC-CCL-220.1) were performed following the procedure described by Gajdács et al, 2017, Bioorg Med Chem Lett. 27(4): 797-802. The effects of increasing concentrations of selenium compounds on cell growth were tested in 96-well flat-bottomed microtiter plates. The selectivity of the action towards cancer cells was assessed through the evaluation of cytotoxic activity in a non-tumoral cell line, the MRC-5 human embryonal lung fibroblast cell lines (ATCC CCL-171), as described in Gajdács et al, 2017, Bioorg Med Chem Lett. 27(4): 797-802.
(§2) All cell lines were purchased from LGC Promochem, Teddington, UK. The colonic cells were cultured in RPMI 1640 medium supplemented with 10% heat-inactivated fetal bovine serum, 2 mM L-glutamine, 1 mM Na-pyruvate and 100 mM Hepes. The cell lines were incubated at 37°C, in a 5% CO2, 95% air atmosphere. The semi-adherent human colon cancer cells were detached with Trypsin-Versene (EDTA) solution for 5 min at 37°C. Alternatively, MRC-5 cells was cultured in Eagle's Minimal Essential Medium (EMEM, containing 4.5 g/L glucose) supplemented with a non-essential amino acid mixture, a selection of vitamins and 10% heat-inactivated fetal bovine serum. The cell lines were incubated at 37°C, in a 5% CO2, 95% air atmosphere.
(§3) The compounds were diluted in a volume of 100 µL of medium. The two-fold serial dilutions of selenocompounds were prepared in 100 µL of RPMI 1640, horizontally. The semi-adherent colonic adenocarcinoma cells were treated with Trypsin-Versene (EDTA) solution. They were adjusted to a density of 2×10^4 cells in 100 µL of RPMI 1640 medium, and were added to each well, with the exception of the medium control wells. The final volume of the wells containing selenocompounds and cells was 200 µL.
(§4) The culture plates were incubated at 37°C for 24 h; at the end of the incubation period, 20 µL of MTT (thiazolyl blue tetrazolium bromide, Sigma) solution (from a stock solution of 5 mg/mL) were added to each well. After incubation at 37°C for 4 h, 100 µL of sodium dodecyl sulfate (SDS) (Sigma) solution (10% in 0.01 M HCI) were added to each well and the plates were further incubated at 37°C overnight. Cell growth was determined by measuring the optical density (OD) at 540/630 nm with Multiscan EX ELISA reader (Thermo Labsystems, Cheshire, WA, USA). Inhibition of the cell growth was determined according to the formula below: […] = 100−[(OD sample−OD medium control)/(OD cell control−OD medium control)] × 100 [formula]
(§5) Results are expressed in terms of IC50, defined as the inhibitory dose that reduces the growth of the cells exposed to the tested compounds by 50%. Regarding the selectivity, the selectivity indexes (SI) were calculate, being SI the quotient of the IC50 in non-tumoral cells (MRC-5) and the respective cancer cell (Colo-205 or Colo-320). Compound is considered moderately selective when SI < 6 and ≥ 3; and strongly selective when SI ≥ 6.

The test system of data set [2] is Colo 320/MDR-LRP multidrug resistant overexpressing ABCB1 (MDR1)-LRP. Put plainly: cells. To be noted: for IC50: Homo sapiens, 24 h, read-out: Colo 320 Cytotoxicity; for SI (MRC-5/Colo320): quotient of IC50 in MRC-5 and IC50 in Colo-320. It is filed as cell-based, human. As to the method:
as §1, §2, §3, §4, §5

For another data set, the system named is Saccharomyces cerevisiae. Nature of the data set: Antifungal activity (optical density), Saccharomyces cerevisiae. It is filed as cell-based. The protocol:
The compounds were tested for their antifungal and nematicidal properties against the fungi Candida albicans and Saccharomyces cerevisiae, and against the nematode Steinernema feltiae.
Fungal cell densities were determined by measuring the optical density (OD) at 570 nm at 0 h (first measurement immediately after incubation), 4 h, and 24 h after incubation at 37 °C; and using a Universal Microplate Reader, EL800, Biotech Instruments, Inc. Highland Park, Winooski, VT, USA. Compounds were dissolved in 1% DMSO and were tested at final concentrations of 50, 100, 150, and 200 µM. Nutrient Sabouraud Dextrose (SD), and Yeast Peptone Dextrose (YPD) were used as media for C. albicans, and S. cerevisiae, respectively. Ketoconazole was used as the positive control for C. albicans and S. cerevisiae. The growth culture with medium for each organism was used as the negative control. The Solvent 1% DMSO stock was used as a solvent control. All experiments were carried out in triplicate and on three different occasions (n = 9).
For the three organisms considered (C. albicans, S. cerevisiae and S. feltiae), the inhibitory concentration 50% (IC50) is defined as the concentration that inhibits the viability of the respective organism to a 50% of the viability determined for the negative control.

Another data set has as its target T1, ABCB1 efflux pump (Homo sapiens, UniProt P08183).
T1 construct: The colonic adenocarcinoma cells (the doxorubicin-sensitive Colo 205 and the multidrug resistant Colo 320); host or cells: Colo 320/MDR-LRP (multidrug resistant), with Colo 205 (ATCC-CCL-222) as the sensitive parental comparator
Nature of the data set: Rhodamine 123 assay of inhibition of MDR efflux pumps (flow cytometry). It is filed as cell-based. To be noted: Quotient = 100 × FARcompound/FARverapamil, verapamil 20 µM, Colo 320 vs Colo 205; for Inhibition of efflux pumps At 2 µM concentration: compound 2 µM; for Inhibition of efflux pumps At 20 µM concentration: compound 20 µM. The protocol:
This method, described in Gajdács et al, 2017, Bioorg Med Chem Lett. 27(4): 797-802, is a fluorescence-based detection system which uses verapamil as reference inhibitor of the ABCB1 efflux pump. The colonic adenocarcinoma cells (the doxorubicin-sensitive Colo 205 and the multidrug resistant Colo 320) were adjusted to a density of 2×10^6/mL, re-suspended in serum-free RPMI 1640 medium and distributed in 0.5 mL aliquots into Eppendorf centrifuge tubes. Selenocompounds (1 and 10 µL from a stock solution of 1 mM, respectively) were added at different concentrations (2 µM and 20 µM final concentrations, respectively), and the samples were incubated for 10 min at room temperature. Next, 10 µL (5.2 µM final concentration) of rhodamine 123 was added to the samples and the cells were incubated for 20 minutes at 37°C, washed twice with phosphate buffered saline (PBS) and re-suspended in 1 mL PBS for analysis. The fluorescence intensity of the cell population was measured with a Partec CyFlow flow cytometer (Partec, Munster, Germany). Verapamil was used as a positive control at 20 µM final concentration in the rhodamine 123 exclusion experiments. The mean fluorescence intensity (%) was calculated for the treated multidrug resistance (MRD) Colo 320 and sensitive Colo 205 cell lines as compared to the untreated cells. The fluorescence activity ratio (FAR) was calculated based on the following equation which relates the measured fluorescence values: FAR = (MDRtreated /MDRcontrol)/(parentaltreated /parentalcontrol); Quotient = 100 × (FARcompound/FARverapamil) [formula]
On the technique in general: In flow cytometry, cells or beads pass a laser one at a time.

[3] abbreviates: read-out: Antifungal activity Saccharomyces cerevisiae, IC50 class, tested at 50, 100, 150 and 200 µM, OD 570 nm, 37 °C, read-out: Antifungal activity Streptomyces cerevisiae.

T1 sequence (P08183 whole entry): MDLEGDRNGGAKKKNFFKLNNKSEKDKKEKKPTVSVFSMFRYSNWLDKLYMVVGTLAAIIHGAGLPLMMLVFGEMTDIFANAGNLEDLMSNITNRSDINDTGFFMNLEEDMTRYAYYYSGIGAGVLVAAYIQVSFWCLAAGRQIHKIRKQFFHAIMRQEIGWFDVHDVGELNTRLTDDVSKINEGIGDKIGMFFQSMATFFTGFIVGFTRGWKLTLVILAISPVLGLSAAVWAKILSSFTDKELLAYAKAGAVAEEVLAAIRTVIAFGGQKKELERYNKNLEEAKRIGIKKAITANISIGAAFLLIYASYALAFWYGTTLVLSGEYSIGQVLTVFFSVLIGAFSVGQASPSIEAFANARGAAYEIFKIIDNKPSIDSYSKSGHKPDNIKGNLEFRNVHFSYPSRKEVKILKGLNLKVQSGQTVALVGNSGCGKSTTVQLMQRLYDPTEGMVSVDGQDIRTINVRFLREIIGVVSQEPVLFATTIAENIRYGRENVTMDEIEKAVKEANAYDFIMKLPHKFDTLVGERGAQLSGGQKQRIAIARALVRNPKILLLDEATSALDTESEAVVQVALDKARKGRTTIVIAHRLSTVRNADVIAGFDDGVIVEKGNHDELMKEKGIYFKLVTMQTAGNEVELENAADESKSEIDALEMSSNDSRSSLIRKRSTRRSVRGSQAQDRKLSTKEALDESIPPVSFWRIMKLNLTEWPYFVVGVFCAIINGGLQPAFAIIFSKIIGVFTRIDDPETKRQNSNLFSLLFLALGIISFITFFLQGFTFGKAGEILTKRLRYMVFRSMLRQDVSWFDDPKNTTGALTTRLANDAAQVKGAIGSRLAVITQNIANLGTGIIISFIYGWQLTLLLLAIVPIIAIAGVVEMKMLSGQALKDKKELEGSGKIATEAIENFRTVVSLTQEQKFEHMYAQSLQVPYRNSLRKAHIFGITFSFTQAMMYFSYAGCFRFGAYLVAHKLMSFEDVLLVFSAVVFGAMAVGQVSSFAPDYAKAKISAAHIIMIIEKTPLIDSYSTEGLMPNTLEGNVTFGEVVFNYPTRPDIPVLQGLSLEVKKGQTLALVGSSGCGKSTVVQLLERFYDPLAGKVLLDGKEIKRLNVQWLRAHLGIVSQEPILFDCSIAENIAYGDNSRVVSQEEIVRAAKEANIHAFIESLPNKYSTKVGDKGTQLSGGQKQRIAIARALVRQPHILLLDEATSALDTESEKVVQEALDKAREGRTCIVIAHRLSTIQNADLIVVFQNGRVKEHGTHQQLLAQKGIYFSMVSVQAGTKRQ

Regarding `N#CC[Se]C(=O)c1ccc(C(=O)[Se]CC#N)cc1` [Compound 18, Se,Se-bis-(cyanomethyl) benzene-1,4-bis-(carboselenoate)], in data set [1], the IC50 at 24 h is over 50 µM. For the same compound, in data set [2], the IC50 lay within 1 to 10 µM and the “SI (MRC-5/Colo320)” value is listed as “*** (Strongly selective compounds: SI ≥ 6)”. The IC50 in the data set on Saccharomyces cerevisiae (setting [3]) is over 100 µM. Further, at ABCB1 efflux pump, the “Inhibition of efflux pumps At 2 µM concentration” value was “** (Potent inhibitors of MDR efflux pumps: 100% ≤ Quotient < 200% (from 1- to 2-fold more potent than reference verapamil))” and the “Inhibition of efflux pumps At 20 µM concentration” value is recorded as “** (Potent inhibitors of MDR efflux pumps: 100% ≤ Quotient < 200% (from 1- to 2-fold more potent than reference verapamil))”.
As for `N#CC[Se]C(=O)c1cccc(C(=O)[Se]CC#N)c1` [Compound 19, Se,Se-bis-(cyanomethyl)benzene-1,3-bis-(carboselenoate)], in data set [1] (mrc-5 cells), the cytotoxic concentration (CC50) (in general, the concentration that lowers cell viability or growth by half) was over 50 µM. In data set [2], the IC50 was 1 to 10 µM and the “SI (MRC-5/Colo320)” value is reported as “*** (Strongly selective compounds: SI ≥ 6)”. Besides, the IC50 with Saccharomyces cerevisiae (read-out: Antifungal activity Saccharomyces cerevisiae) was 10 to 50 µM. In addition, at ABCB1 efflux pump, the “Inhibition of efflux pumps At 2 µM concentration” value is “** (Potent inhibitors of MDR efflux pumps: 100% ≤ Quotient < 200% (from 1- to 2-fold more potent than reference verapamil))” and the “Inhibition of efflux pumps At 20 µM concentration” value is on record as “** (Potent inhibitors of MDR efflux pumps: 100% ≤ Quotient < 200% (from 1- to 2-fold more potent than reference verapamil))”.
With `N#CC[Se]C(=O)c1cc(C(=O)[Se]CC#N)cc(C(=O)[Se]CC#N)c1` [Compound 20, Se,Se,Se-tris-(cyanomethyl) benzene-1,3,5-tris-(carboxyselenoate)], the IC50 at 24 h in data set [1] was over 50 µM. For the same compound, in data set [2], the IC50 lay within 1 to 10 µM and the “SI (MRC-5/Colo320)” value was “*** (Strongly selective compounds: SI ≥ 6)”. In the data set with Saccharomyces cerevisiae (setting [3]), the IC50 lay within 10 to 50 µM. Also, on ABCB1 efflux pump, the “Inhibition of efflux pumps At 2 µM concentration” value is reported as “** (Potent inhibitors of MDR efflux pumps: 100% ≤ Quotient < 200% (from 1- to 2-fold more potent than reference verapamil))” and the “Inhibition of efflux pumps At 20 µM concentration” value was “** (Potent inhibitors of MDR efflux pumps: 100% ≤ Quotient < 200% (from 1- to 2-fold more potent than reference verapamil))”.
The compound `CC(=O)C[Se]C(=O)c1ccc(C(=O)[Se]CC(C)=O)cc1` [Compound 22, Se,Se-bis-(2-oxopropyl) benzene-1,4-bis-(carboselenoate)] had an IC50 at 24 h in data set [1] of under 1 µM. In addition, in data set [2], the IC50 is under 1 µM and the “SI (MRC-5/Colo320)” value is “* (Slightly selective compounds: 1 ≤ SI < 3)”. In addition, in the data set with Saccharomyces cerevisiae (setting [3]), the IC50 is 50 to 100 µM. For the same compound, at ABCB1 efflux pump, the “Inhibition of efflux pumps At 2 µM concentration” value is listed as “*** (Very potent inhibitors of MDR efflux pumps: Quotient ≥ 200% (≥ 2-fold more potent than reference verapamil))” and the “Inhibition of efflux pumps At 20 µM concentration” value is “*** (Very potent inhibitors of MDR efflux pumps: Quotient ≥ 200% (≥ 2-fold more potent than reference verapamil))”.
Take `CC(=O)C[Se]C(=O)c1cccc(C(=O)[Se]CC(C)=O)c1` [Compound 23, Se,Se-bis-(2-oxopropyl) benzene-1,3-bis-(carboselenoate)]: the IC50 at 24 h in data set [1] was 1 to 10 µM. In addition, in data set [2], the IC50 was under 1 µM and the “SI (MRC-5/Colo320)” value is on record as “* (Slightly selective compounds: 1 ≤ SI < 3)”. Further, the IC50 in the data set on Saccharomyces cerevisiae (setting [3]) is over 100 µM. Also, at ABCB1 efflux pump, the “Inhibition of efflux pumps At 2 µM concentration” value is “*** (Very potent inhibitors of MDR efflux pumps: Quotient ≥ 200% (≥ 2-fold more potent than reference verapamil))” and the “Inhibition of efflux pumps At 20 µM concentration” value is listed as “*** (Very potent inhibitors of MDR efflux pumps: Quotient ≥ 200% (≥ 2-fold more potent than reference verapamil))”.
Consider `CC(=O)C[Se]C(=O)c1cc(C(=O)[Se]CC(C)=O)cc(C(=O)[Se]CC(C)=O)c1` [Compound 24, Se,Se,Se-tris-(2-oxopropyl) benzene-1,3,5-tris-(carboxyselenoate)], for which the IC50 at 24 h in data set [1] is under 1 µM. Besides, in data set [2], the IC50 was under 1 µM and the “SI (MRC-5/Colo320)” value is recorded as “* (Slightly selective compounds: 1 ≤ SI < 3)”. Further, the IC50 in the data set on Saccharomyces cerevisiae (setting [3]) was over 100 µM. Also, on ABCB1 efflux pump, the “Inhibition of efflux pumps At 2 µM concentration” value was “*** (Very potent inhibitors of MDR efflux pumps: Quotient ≥ 200% (≥ 2-fold more potent than reference verapamil))” and the “Inhibition of efflux pumps At 20 µM concentration” value is reported as “*** (Very potent inhibitors of MDR efflux pumps: Quotient ≥ 200% (≥ 2-fold more potent than reference verapamil))”.
